Entries after “also recorded” stand apart in the source; their conditions may differ.
Experiments:
[1] = Metabolic stability in in vitro systems; assay type: in vitro ADME, and monkey; settings: human, rat, mouse, dog, monkey
Protein binding in vitro = assay type: in vitro ADME; settings: human
AG104Ld (fibrosarcoma) = experiment: AG104LD PD-L1 antibody-resistant tumor model; assay type: in vivo, B6C3F1 mice; settings: Compound A 0.5 mg/kg SC, days 4, 7, 11, 14, 18, 21; PD-L1 antibody 200 µg
Description: (§1) Compound A was evaluated alone and in combination with 200 µg of the PD-L1 antibody used in Example 6 in immune checkpoint blockade-resistant tumors. In these studies, mice were implanted with LL2 (lung cancer), 4T1 (breast cancer), AG104Ld (fibrosarcoma), and AG104A (fibrosarcoma) tumors. Following implantation, the animals were dosed intratumorally or subcutaneously with 0.5 mg/kg of Compound A alone or in combination with the PD-L1 antibody, as shown in the table below: […]

[2] = system: IFNα, IL-6, TNFα and other cytokines; experiment: Plasma cytokine levels in cynomolgus monkeys; assay type: in vivo; settings: for plasma IFNα levels: male and female
MC38 (colon) = experiment: MC38 syngeneic tumor model; assay type: in vivo, mouse
AG104A (fibrosarcoma) = experiment: AG104A PD-L1 antibody-resistant tumor model; assay type: in vivo, B6C3F1 mice; settings: Compound A 0.5 mg/kg SC, days 4, 7, 10, 14, 17, 21; PD-L1 antibody 200 µg
Description: as §1

[3] = Cynomolgus monkey toxicity and toxicokinetics, subcutaneous (Phases I-III, priming dose); assay type: in vivo, cynomolgus monkeys
Description: Male and female cynomolgus monkeys were assigned to groups and doses of Compound A were administered. Animals were dosed via subcutaneous injection at a volume of 2 mL/kg. The vehicle control article/diluent was phosphate-buffered saline (PBS).

[4] = Pharmacokinetics in mice, subcutaneous vs intravenous; settings: mouse, in vivo
Description: (§2) The nonclinical pharmacokinetics (PK) of subcutaneously, intravenously, or intratumorally administered Compound A was investigated in mice at the doses of 0.1 and/or 0.5 mg/kg.

B16 melanoma = experiment: Abscopal effect, B16 melanoma bilateral tumor model; assay type: in vivo, mice; settings: intratumoral into primary tumor, 0.15 and 0.5 mg/kg
Description: An abscopal effect is an immune-mediated phenomenon wherein direct treatment of a primary tumor can lead to a response in a distant tumor. The potential abscopal effect of Compound A was evaluated in B16 melanoma and AG104A fibrosarcoma tumor models evaluating mice bearing tumors on both right flank (primary tumor) and left flank (secondary tumor). In both models, Compound A was administered intratumorally into the primary tumor on days 5, 8, 11 and 15 after tumor inoculation. The secondary tumor was not treated.

[5] = Pharmacokinetics after intratumoral administration in B16F10 tumor bearing mice; assay type: in vivo; settings: female B16F10 tumor bearing mice
Description: as §2

[6] = 1 mg/kg/day, 1.5, 3 and 6 hours postdose

Nc1nc2c(ncn2[C@@H]2O[C@@H]3COP(=O)(O)OC4C(O)[C@H](n5cnc6c(N)ncnc65)O[C@@H]4COP(=O)(O)OC2C3OCC(F)(F)F)c(=O)[nH]1 (some centres unmarked) [Compound A]
half-life [1]: > 120 min | fraction unbound (Protein binding in vitro): 0.511 | efficacy (tumor growth and survival) (AG104Ld (fibrosarcoma)): suppressed tumor growth and prolonged mouth survival | plasma IL-6 levels ([2]; 0.1 mg/kg/day, 3 and 6 hours postdose): Increased plasma levels of IL-6 | IP-10 ([2]; 0.1 mg/kg/day, 3 hours post dosing): Slight elevation of IP-10 | TNFα levels ([2]; 0.1 mg/kg/day, 6 hours postdose in male, 3 and 6 hours in female): Elevated levels of TNFα | TNFα levels ([2]; 0.1 mg/kg/day, 24 hours post dosing): returned to non-detectable level | IL-6 levels ([2]; 0.1 mg/kg/day, 24 hours postdose): returned to a non-detectable level | plasma IFNα levels ([2]; 0.1 mg/kg/day): did not cause significant increase | plasma IL-6 levels ([2]; 0.6 mg/kg/day, 3 and 6 hours postdose): Increased plasma levels of IL-6 | TNFα levels ([2]; 0.6 mg/kg/day, 6 hours postdose in male, 1.5, 3, 6 hours in female): Elevated levels of TNFα | plasma IFNα levels ([2]; 0.6 mg/kg/day): did not cause significant increase | IP-10 ([2]; 0.6 mg/kg/day, throughout the time course): No significant elevation of IP-10 | IP-10 level [2, 6]: no increased IP-10 level | TNFα levels [2, 6]: Elevated TNFα levels | IFNα levels ([2]; 1 mg/kg/day, 1.5 and 3 hours postdose): did not cause significant change | IL-6 levels ([2]; 1 mg/kg/day, 3 and 6 hours postdose): Marked increase in IL-6 levels | IFNα levels ([2]; 1 mg/kg/day, 6 hours postdose): elevated levels | IFNα levels ([2]; 3 mg/kg and 10 mg/kg, 12 hours after dosing): decreased 12 hours after dosing, but did not return to pre-dose levels | IFNα levels ([2]; 10 mg/kg group): Higher levels of IFNα | IL-12, G-CSF, and IFNγ levels ([2]; Phase II): sporadic increases | changes in MCP-1 and IP-10 levels ([2]; Phase II): suggestive of an inflammatory response with resolution by 24 hours postdose | plasma IL-1ra, IL-6, and IFNα cytokine levels ([2]; Phase II, 3 mg/kg, 3 and 6 hours): dose-dependent increases | tumor growth inhibition (MC38 (colon); intratumoral): highly effective in inhibiting tumor growth | anti-tumor efficacy (MC38 (colon); subcutaneous): also effective | efficacy (tumor growth and survival) (AG104A (fibrosarcoma)): suppressed tumor growth and prolonged mouth survival | morbidity ([3]; 10 mg/kg/dose, Phase I): Morbidity was observed within 1 day | exposure (mean Cmax, AUC0-2, AUC0-8, AUC0-24) vs dose ([3]; 0.3 to 3 mg/kg/day, Day 1 of Phase II): generally dose-proportional | compound-related findings ([3]; 0.6 or 1.0 mg/kg/day): limited to a transient body temperature increase and mild to moderate clinical and anatomic pathology findings | tolerability ([3]; 3 weekly doses of 0.6 mg/kg without a priming dose): tolerated | tolerability ([3]; 3 weekly doses of 1.0 mg/kg/day preceded by a priming dose of 0.1 mg/kg): tolerated | tolerated dose on escalation ([3]; Phase I, subcutaneous dose escalation): up to 3.0 mg/kg/dose | tolerability ([3]; Phase II, 3 mg/kg in naïve animals): not tolerated and led to clinical observations of morbidity or death within 1 day of dosing | tolerability ([3]; Phase II, 3 weekly administrations of 0.3 mg/kg): tolerated | survival of animals ([3]; Phase III, three weekly doses of 0.6 or 1.0 mg/kg/day): survived until scheduled sacrifice | sex differences in mean Cmax, AUC0-2, AUC0-8, AUC0-24 ([3]; monkeys): less than 2 fold | accumulation ([3]; multiple doses of 0.3 mg/kg/day): No accumulation | dose not tolerated (acute morbidity and/or death) ([3]; naïve animals): ≥ 3.0 mg/kg | cause of acute morbidity and/or death ([3]; ≥ 3.0 mg/kg, naïve animals): pulmonary edema | bioavailability ([4]; sc, subcutaneous 0.5 mg/kg, male mice, subcutaneous AUC0-t vs intravenous AUC0-t, read-out: bioavailability (F)): 121% | clearance ([4]; mice, systemic compartment, read-out: clearance (CL) (converted)): 16.8 mL/min/kg | half-life ([4]; mice, read-out: t½): ~15 min | Vd ([4]; mice, read-out: volume of distribution (Vss)): 0.255 L/kg | survival (B16 melanoma): survival was significantly prolonged | tumor growth/volume, primary and distant tumors (B16 melanoma; days 5, 8, 11, 15): tumor growth was suppressed in both primary and distant tumors; also recorded: significantly decreased | Frel in plasma ([5]; intratumoral 0.1 mg/kg): 105% | Frel in plasma ([5]; intratumoral 0.5 mg/kg): 112%

Reference: patent US20230270773A1, “METHODS OF TREATING CANCER WITH A STING AGONIST” (Immunesensor Therapeutics, Inc., priority 2019, published 2023)
